Columns and labels:
[1] = target: T1, monomeric L-selectin (Homo sapiens, UniProt P14151); experiment: BIAcore surface plasmon resonance, immobilized glycosaminoglycan vs monomeric L-selectin; format: binding; details: for Kd / koff / kon: L-selectin, GAG immobilized, 25° C.; for interaction with immobilized glycosaminoglycan (sensorgram): monomeric L-selectin
T1 construct: purchased Genzyme-Techne
T1 sequence (P14151 39-332 limits assumed): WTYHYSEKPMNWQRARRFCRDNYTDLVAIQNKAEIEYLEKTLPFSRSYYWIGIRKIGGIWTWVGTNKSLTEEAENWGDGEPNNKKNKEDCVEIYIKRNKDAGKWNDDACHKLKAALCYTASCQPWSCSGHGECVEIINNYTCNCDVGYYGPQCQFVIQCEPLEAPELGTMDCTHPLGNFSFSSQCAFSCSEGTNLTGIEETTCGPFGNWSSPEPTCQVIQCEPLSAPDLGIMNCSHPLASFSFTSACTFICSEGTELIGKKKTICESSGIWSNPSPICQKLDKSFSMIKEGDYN
Experimental: (§1) Affinity kinetics of the interaction between various CS/DS chains and each of L-selectin, P-selectin, CD44 and chemokine were examined by surface plasmon resonance using BIAcore™ biosensor [manufactured by BIAcore AB].
(§2) All experiments were performed at 25° C. At stages of washing and dissociation, buffer C (20 mM HEPES-NaOH, 0.15M NaCl, 1 mM CaCl2, 1 mM MgCl2, pH6.8) was used as a running buffer.
(§3) First, about 1.8 to 2.0 kiloresonance unit (1 kiloresonance unit=1 ng/mm^2) of streptavidin were covalently immobilized onto B1 sensor chip via a primary amine group using an amine coupling kit [manufactured by Amercham-Bioscience] according to the instruction provided by the manufacturer. The remaining activated groups were blocked with 150 μl of 1M ethanolamine-HCl (pH8.5). Then, each glycosaminoglycan which had been biotinylated at a reducing end was injected to a sensor tip surface by using EZ-link™ biotin-LC-hydrazide [manufactured by Pierce] so as to obtain about 150 resonance unit of an immobilization level, according to the method of Sadir et al. [J. Biol. Chem., 276, 8288-8296 (2001); all teachings of which are hereby incorporated by reference].
(§4) Binding assay was performed by injecting continuously each of various concentrations of secondary lymphoid tissue chemokine, γ-interferon inducible protein-10, stromal cell-derived factor-1β, monomeric L-selectin [manufactured by Genzyme-Techne], monomeric P-selectin [manufactured by Genzyme-Techne] and monomeric CD44, to a glycosaminoglycan-coupled sensor tip at a flow rate of 30 μl/min for 0 to 90 seconds, and then injecting a running buffer thereto. A response in resonance unit was recorded as a function of a time.
(§5) A sensor tip surface was regenerated with 300 μl of 1 M NaCl when chemokine or CD44 was used, or regenerated with 300 μl of 1 M NaCl, and additional 100 μl of 50 mM EDTA (pH8.0), when selectin was used. As a result of regeneration of a sensor tip surface, a remarkable change in a baseline was not observed.
(§6) An affinity kinetic parameter was determined by BIAevaluation 3.0 software [manufactured by Pharmacia Biosensor] using a single site binding model. […] In FIG. 6 and Table 3, SLC denotes secondary lymphoid tissue chemokin, IP-10 denotes γ-interferon inducible protein-10, SDF-1β denotes stromal cell-derived factor-1β, CS E denotes chondroitin sulfate E, and CS A denotes chondroitin sulfate A. In addition, in Table 3, Kd value for the interaction between monomeric CD44 and chondroitin sulfate E is a value calculated from a binding amount at equilibrium, and Kd value of the interaction between CD44 and hyaluronic acid is a value calculated using CD44-Ig.

[2] = target: T2, monomeric CD44 (Homo sapiens, UniProt P16070); experiment: BIAcore surface plasmon resonance, immobilized glycosaminoglycan vs monomeric CD44; format: binding
T2 construct: codons of amino acids positions 172 to 178 of human CD44; Myc-His (from vector pcDNA 3.1/Myc-His(+) B) (C); made in house; host or cells: 293T cells, secreted into conditioned medium and purified on anti-CD44 BRIC 235 Sepharose
Experimental: Human-derived CD44 cDNA was prepared by PCR using a sense primer (SEQ ID NO: 1):
Thereafter, the conditioned medium was subjected to immunoaffinity chromatography with anti-CD44 monoclonal antibody BRIC 235-coupled CNBr-activated Sepharose 4B, to obtain monomeric CD44. The resulting soluble CD44 was subjected to SDS-PAGE and silver staining. As a result, the purity of the resulting soluble CD44 was more than 95%.
as §1, §2, §3, §4, §5, §6

[3] = target: T3, L-selectin-Ig (Homo sapiens, UniProt P14151); experiment: Binding inhibition assay (ELISA), biotinylated versican to L-selectin-Ig, various concentrations; details: dose-dependent, FIG. 2 panel A
T3 construct: purchased R & D Systems Inc
Experimental: Inhibition assay of binding between versican and each of L-selectin, P-selectin and CD44 was performed as follows. First, each well on a 96 well flat bottom microtiter plate (Coster EIA/RIA plate No. 3690) was coated with L-selectin-Ig (3 μg/ml), P-selectin-Ig (4 μg/ml) or CD44-Ig (0.25 μg/ml) by a conventional procedure. […] The plate was incubated at room temperature for 2 hours. Thereafter, the plate was washed with the buffer A, and enzyme-linked immunosorbent assay was performed in the same manner as described in Kawashima, H. et al. [J. Biol. Chem., 275, 35448-35456 (2000)]. Binding was determined by measuring absorbance at 620 nm using alkaline phosphatase-conjugated streptavidin and Blue Phos™ substrate.

[4] = tested on: secondary lymphoid tissue chemokine; experiment: ELISA, biotinylated versican binding to SLC in presence of glycosaminoglycan; details: 100 μg/ml glycosaminoglycan; FIG. 5
Experimental: (§7) A well of a 96 well flat bottom microtiter plate was coated with BSA (5 μg/ml), anti-versican monoclonal antibody 2B1 (5 μg/ml), CD44-Ig (7 μg/ml), L-selectin-Ig (3 μg/ml), P-selectin-Ig (3 μg/ml) or chemokine (1 μg/ml), and then blocked with a phosphate buffered physiological saline containing 3% by weight of BSA. As the above chemokine, secondary lymphoid tissue chemokine, γ-interferon inducible protein-10, platelet factor 4, stromal cell-derived factor-1β [manufactured by Pepro Tech] and stromal cell-derived factor-1α [manufactured by Pepro Tech] were used.
(§8) Thereafter, the plate was washed with the buffer A, and enzyme-linked immunosorbent assay was performed in the same manner as that of the previous report [Kawashima, H. et al., J. Biol. Chem., 275, 35448-35456 (2000)]. Binding was determined by measuring absorbance at 620 nm using alkaline phosphatase-conjugated streptavidin and Blue Phos™ substrate. In FIG. 5, expression of an abscissa axis is the same as that of FIG. 4.

[5] = target: T4, platelet factor 4 (Homo sapiens, UniProt P02776); experiment: ELISA, biotinylated versican binding to PF4 in presence of glycosaminoglycan; details: 100 μg/ml glycosaminoglycan; FIG. 5
T4 sequence (P02776 32-101): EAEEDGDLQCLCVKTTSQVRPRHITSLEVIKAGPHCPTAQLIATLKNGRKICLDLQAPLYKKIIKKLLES
Experimental: as §7, §8

[6] = tested on: CD44-Ig; experiment: ELISA, biotinylated versican binding to CD44-Ig in presence of glycosaminoglycan; design: species or system human; details: 100 μg/ml glycosaminoglycan; FIG. 5
Experimental: as §7, §8

[7] = CD44 monomeric, GAG immobilized, 25° C.

CD44-Ig, sequence (P16070 21-178 limits assumed): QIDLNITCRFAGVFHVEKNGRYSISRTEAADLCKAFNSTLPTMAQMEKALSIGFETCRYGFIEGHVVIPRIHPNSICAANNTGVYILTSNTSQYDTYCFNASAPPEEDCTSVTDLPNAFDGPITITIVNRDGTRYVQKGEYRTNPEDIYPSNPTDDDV
T2 sequence (P16070 21-178 limits assumed): as above
T3 sequence (P14151 with tags, fused parts or gaps limits assumed): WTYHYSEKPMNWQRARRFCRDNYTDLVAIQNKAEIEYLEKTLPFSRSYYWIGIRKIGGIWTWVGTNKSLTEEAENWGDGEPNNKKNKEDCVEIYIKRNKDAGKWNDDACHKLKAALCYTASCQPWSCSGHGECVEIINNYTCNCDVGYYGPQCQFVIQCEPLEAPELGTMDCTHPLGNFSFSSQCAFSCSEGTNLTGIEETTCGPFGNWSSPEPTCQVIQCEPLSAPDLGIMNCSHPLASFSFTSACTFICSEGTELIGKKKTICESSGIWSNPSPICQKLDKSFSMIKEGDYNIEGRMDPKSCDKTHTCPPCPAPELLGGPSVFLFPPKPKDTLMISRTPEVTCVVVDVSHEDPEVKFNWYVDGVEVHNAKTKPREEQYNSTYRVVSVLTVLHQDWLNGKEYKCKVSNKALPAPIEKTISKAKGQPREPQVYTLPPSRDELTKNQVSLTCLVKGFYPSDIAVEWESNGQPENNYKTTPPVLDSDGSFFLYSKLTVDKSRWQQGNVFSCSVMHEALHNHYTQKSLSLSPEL

| Substance | Kd [1] [nM] | koff [1] [s⁻¹] | kon [1] [M⁻¹ s⁻¹] | binding of monomeric CD44 to glycosaminoglycan ([2]; monomeric CD44) | inhibition of binding between biotinylated versican and L-selectin-Ig [3] | inhibition of binding between biotinylated versican and secondary lymphoid tissue chemokine [4] | inhibition of binding between biotinylated versican and platelet factor 4 [5] | inhibition of binding between biotinylated versican and CD44-Ig [6] | interaction with immobilized glycosaminoglycan (sensorgram) [1] | Kd [2, 7] [µM] | koff [2, 7] [s⁻¹] | kon [2, 7] [M⁻¹ s⁻¹] | Kd ([2]; monomeric CD44, weakly bound, equilibrium value) [µM] |
| --- | --- | --- | --- | --- | --- | --- | --- | --- | --- | --- | --- | --- | --- |
| chondroitin polysulfate [CPS] | 47.7 | 0.000366 | 7680 | did not bind | inhibited | inhibited | inhibited | not remarkable |  |  |  |  |  |
| chondroitin sulfate A [CS A] |  |  |  |  | not inhibited |  |  | inhibited | did not interact | 85.2 | 0.049 | 576 |  |
| chondroitin sulfate E [CS E] | 21.2 | 0.000439 | 20700 |  | inhibited | inhibited | inhibited | inhibited | bound |  |  |  | 211 |
| dermatan polysulfate [DPS] |  | 0.000289 | 13700 | did not bind | inhibited | inhibited | inhibited | inhibited |  |  |  |  |  |
